Experimental findings from ChEMBL document CHEMBL2074347, “Circumvention of tumor multidrug resistance by a new annonaceous acetogenin: atemoyacin-B” (Acta Pharmacol Sin, 1999) are described below.

Data set [1] has as its target T1, ATP-dependent translocase ABCB1 (Homo sapiens, UniProt P08183). The experiment in a line: TP_TRANSPORTER: increase in Fura-2 intracellular accumulation (Fura-2: ? uM, Ateomyacin-B: 168 uM) in MCF-7/Dox cells. The class given is functional, cell-based.
In data set [2] the target is T1, ATP-dependent translocase ABCB1. Nature of the data set: TP_TRANSPORTER: increase in Doxorubicin intracellular accumulation (Doxorubicin: ? uM, Ateomyacin-B: 168 uM) in MCF-7/Dox cells. The class given is functional, cell-based.

T1 sequence (P08183 whole entry): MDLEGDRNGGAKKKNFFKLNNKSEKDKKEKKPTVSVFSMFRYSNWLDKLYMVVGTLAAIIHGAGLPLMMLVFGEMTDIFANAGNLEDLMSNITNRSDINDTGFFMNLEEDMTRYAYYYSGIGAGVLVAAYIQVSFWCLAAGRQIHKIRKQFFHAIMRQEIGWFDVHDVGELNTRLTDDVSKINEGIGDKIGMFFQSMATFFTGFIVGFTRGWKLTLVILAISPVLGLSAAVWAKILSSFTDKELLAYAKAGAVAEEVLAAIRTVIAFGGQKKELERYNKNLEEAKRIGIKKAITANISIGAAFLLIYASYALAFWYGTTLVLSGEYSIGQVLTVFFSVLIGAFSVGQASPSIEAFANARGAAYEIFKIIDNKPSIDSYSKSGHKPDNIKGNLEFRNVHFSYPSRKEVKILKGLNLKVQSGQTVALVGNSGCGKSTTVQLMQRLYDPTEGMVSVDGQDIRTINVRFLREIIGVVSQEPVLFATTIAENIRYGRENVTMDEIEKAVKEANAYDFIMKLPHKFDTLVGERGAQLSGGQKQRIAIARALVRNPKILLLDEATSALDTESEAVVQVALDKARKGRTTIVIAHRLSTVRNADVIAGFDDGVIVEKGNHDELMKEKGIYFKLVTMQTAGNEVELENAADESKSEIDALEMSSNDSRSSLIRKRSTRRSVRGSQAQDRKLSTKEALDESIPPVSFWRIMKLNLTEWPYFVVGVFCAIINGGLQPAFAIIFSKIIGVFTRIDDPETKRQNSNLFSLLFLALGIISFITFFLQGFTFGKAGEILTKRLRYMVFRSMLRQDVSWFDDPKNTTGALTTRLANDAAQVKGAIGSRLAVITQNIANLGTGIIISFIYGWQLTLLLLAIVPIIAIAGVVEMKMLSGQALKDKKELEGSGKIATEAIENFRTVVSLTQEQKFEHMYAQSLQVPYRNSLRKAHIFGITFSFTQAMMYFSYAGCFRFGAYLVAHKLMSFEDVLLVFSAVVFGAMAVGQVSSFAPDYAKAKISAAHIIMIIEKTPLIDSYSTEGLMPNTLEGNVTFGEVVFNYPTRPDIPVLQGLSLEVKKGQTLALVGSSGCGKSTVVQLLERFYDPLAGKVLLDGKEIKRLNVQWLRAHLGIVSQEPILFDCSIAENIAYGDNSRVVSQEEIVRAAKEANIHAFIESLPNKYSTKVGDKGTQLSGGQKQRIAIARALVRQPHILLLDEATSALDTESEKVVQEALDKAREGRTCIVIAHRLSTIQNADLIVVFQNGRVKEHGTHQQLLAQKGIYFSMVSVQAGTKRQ

`CCCCCC(O)CCCCC(O)C1CCC(C2CCC(C(O)CCCCCCCCCCC3=CC(C)OC3=O)O2)O1` (configuration not stated) [Atemoyacin-B]: the figures for the Activity in data set [1] and in data set [2] were 2.61 fold and 3.28 fold, respectively.
